Structures are written as SMILES.

Data set [1] is described as follows: Release of LXA4 from PEO/PDLLA membranes in PBS, RP-HPLC. Format: physicochemical. As to the method: The release of LXA4 from the membrane was evaluated using phosphate-buffered saline solution (PBS) (pH 7.4, at 37°C). Pieces (3 cm x 2.5 cm, ∼33 mg, sample) of membranes, empty or LXA4-loaded, were placed in 100 mm dishes containing PBS (8 mL) and maintained at 37 °C, 5% CO2 and 95% humidity for 1, 3, 18, 48, 72 and 96 h. LXA4 release was assessed by HPLC analysis after solid phase extraction. Following incubation with PBS, membranes were diluted with 2 volumes of cold MeOH and stored at -80°C until extraction. All samples were extracted using C-18 cartridges (Bond Elut Varian, Agilent Technologies, Milan) as previously described (Romano M, Luciotti G, Gangemi S, Marinucci F, Prontera C, D'Urbano E, et al. Urinary excretion of lipoxin A(4) and related compounds: development of new extraction techniques for lipoxins. Laboratory investigation; a journal of technical methods and pathology. 2002;82(9):1253-4). Before extraction, PGB2 (50 ng/sample) was added to each sample as internal standard to calculate extraction recovery. Samples were then taken to dryness using a rotary evaporator, suspended in 10 mL of deionized (dd) H2O containing MeOH, acidified to pH 3.5 and rapidly loaded onto C-18 columns previously equilibrated with MeOH and (dd) H2O. After sample loading, columns were washed with (dd) H2O to restore a neutral pH. Samples were eluted with 7 mL of methyl formate and taken to dryness using a Speedvac apparatus. The dried samples were then suspended in MeOH (100 µl) and injected into an HPLC apparatus (Agilent 1100) equipped reverse phase-HPLC with a Hypersil C-18 column (300 mm x 4 mm x 5 µm, Waters) and a photodiode array detector (Waters) for online UV spectroscopy. LXA4 was identified by UV spectroscopy and considering the chromatographic retention time.
LXA4 releasing from the PEO/PDLLA membranes was investigated by incubating membranes with a PBS solution at pH 7.4 for varying times. LXA4 was quantitated by RP-HPLC. […] The maximum release was observed after 48 h (17%), followed by a progressive decrement at 72 h and 96 h (around 11%). Approximately 25% of LXA4 was recovered as trans isomer, in line with the content of Romano M, Serhan CN. Lipoxin generation by permeabilized human platelets. Biochemistry.

A further data set has as its system hPDLSCs. Briefly: Proliferation assay with LXA4 released from PEO/PDLLA membrane. Format: cell-based, Human. The following applies: LXA4 eluted from PEO/PDLLA membranes in PBS. The procedure: Bioptic samples of periodontal ligament were obtained from volunteers aged 20-35 years, exempt from systemic or oral disease, after undesigning the informed consent deed. The study was approved by the Medical Ethic Committee of the "G. D'Annunzio" University, Chieti, Italy (n°266/17.04.14). The periodontal tissue obtained by bioptic samples, grinded and washed several times with PBS (Lonza, Basel, Switzerland) was cultured using TheraPEAK™MSCGM-CD™ BulletKit serum free (MSCGM-CD) medium for the growth of human mesamchimal steam cells (MSCGM-CD) (Lonza), to minimize the exposure to substances of non-human origin. Human periodontal ligament stem cells (hPDLSCs) were obtained and cultured as reported in Trubiani O, Piattelli A, Gatta V, Marchisio M, Diomede F, D'Aurora M, et al. Assessment of an efficient xeno-free culture system of human periodontal ligament stem cells. […]
For the proliferation assay with LXA4 released from PEO/PDLLA membrane, hPDLSCs (2 x 10^3 cells/well) were seeded in 96-well microplates with complete medium overnight at 37 °C and 5%CO2. […] Data were expressed as proliferation index, calculated as the ratio between values from cells exposed to membrane-eluted LXA4 and from cells exposed to vehicle only (ethanol) of LXA4. […]
The proliferation and migration of hPDLSC growth a direct contact with fragment of LXA4-loaded membrane were evaluated. […]

For the molecule `CCCCC[C@H](O)/C=C/C=C\C=C\C=C\[C@@H](O)[C@@H](O)CCCC(=O)O` [LXA4, Lipoxin A4], the LXA4 released result in data set [1] (PBS pH 7.4, 37 °C, 72 h) is given as “around 11%”; in data set [1] (PBS pH 7.4, 37 °C, 96 h) it was “around 11%”. The “LXA4 released, maximum release” value in data set [1] (PBS pH 7.4, 37 °C, after 48 h) is listed as 17%. Further, the “LXA4 released, of the total LXA4 added to membranes” value in data set [1] (PBS pH 7.4, 37 °C, within 3 h) is given as “approximately 15%”. In addition, the “LXA4 recovered as trans isomer” value in data set [1] (of the total LXA4 eluted from the membranes) is “Approximately 25%”. Further, the “biological activities on hPDLSCs after release” value with hPDLSCs is recorded as “retained its biological activities on hPDLSCs”.

For the origin of these results see patent publication EP3246445A1, “LIPOXIN A4 DELIVERY SYSTEM BY A POROUS ELECTROSPUN POLYMERIC MEMBRANE” (Universita' Degli Studi G. D Annunzio Chieti - Pescara, priority 2016, dated 2017).
